Columns and labels:
Caco-2 = assay: MTT assay; type: cell-based; conditions: Homo sapiens; Caco-2, MTT assay, 24 h incubation
Protocol: (§1) The proliferation of colorectal cancer cells (HCT116, HT29 and Caco-2) was assessed using MTT assay as previously reported. Cells were treated with increasing concentrations of 1, 5, 10, 20, 40, 80 or 100 µM of CP hybrids 4a-j, doxorubicin, or DMSO. See Supplementary Appendix A.

HCT116 = assay: MTT assay; type: cell-based; conditions: Homo sapiens, HCT-116, 24 h incubation
Protocol: as §1

HT-29 = assay: MTT assay; type: cell-based; conditions: Homo sapiens; HT-29, MTT assay, 24 h incubation
Protocol: as §1

NCI-H226 = assay: NCI one-dose screen; type: cell-based; conditions: Homo sapiens; NCI-H226, 10 µM; read-out: Growth Percent
Method in brief: (§2)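 First, the NCI selected compounds for evaluation; then each was applied at 10 µM to 59 human cancer cell lines from nine subpanels, and growth percent was recorded under the standard protocol.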

IGROV1 = assay: NCI one-dose screen; type: cell-based; conditions: Homo sapiens, IGROV-1; IGROV1, 10 µM; read-out: Growth Percent
Method in brief: as §2

OVCAR-4 = assay: NCI one-dose screen; type: cell-based; conditions: Homo sapiens; OVCAR-4, 10 µM; read-out: Growth Percent
Method in brief: as §2

CCRF-CEM = assay: NCI one-dose screen; type: cell-based; conditions: Homo sapiens, read-out: Growth Percent
Method in brief: as §2

OVCAR-5 = assay: NCI one-dose screen; type: cell-based; conditions: Homo sapiens; OVCAR-5, 10 µM; read-out: Growth Percent
Method in brief: as §2

HS 578T = assay: NCI one-dose screen; type: cell-based; conditions: Homo sapiens, read-out: Growth Percent
Method in brief: as §2

MCF7 = assay: NCI one-dose screen; type: cell-based; conditions: Homo sapiens; MCF7, 10 µM; read-out: Growth Percent
Method in brief: as §2

ACHN = assay: NCI one-dose screen; type: cell-based; conditions: Homo sapiens, read-out: Growth Percent
Method in brief: as §2

HCC-2998 = assay: NCI one-dose screen; type: cell-based; conditions: Homo sapiens; HCC-2998, 10 µM; read-out: Growth Percent
Method in brief: as §2

OVCAR-3 = assay: NCI one-dose screen; type: cell-based; conditions: Homo sapiens; OVCAR-3, 10 µM; read-out: Growth Percent
Method in brief: as §2

LOX IMVI = assay: NCI one-dose screen; type: cell-based; conditions: Homo sapiens, read-out: Growth Percent
Method in brief: as §2

MALME-3M = assay: NCI one-dose screen; type: cell-based; conditions: Homo sapiens, read-out: Growth Percent
Method in brief: as §2

SW-620 = assay: NCI one-dose screen; type: cell-based; conditions: Homo sapiens; SW-620, 10 µM; read-out: Growth Percent
Method in brief: as §2

HL-60(TB) = assay: NCI one-dose screen; type: cell-based; conditions: Homo sapiens, read-out: Growth Percent
T-47D = assay: NCI one-dose screen; type: cell-based; conditions: Homo sapiens, T47D, read-out: Growth Percent
Method in brief: as §2

CAKI-1 = assay: NCI one-dose screen; type: cell-based; conditions: Homo sapiens; CAKI-1, 10 µM; read-out: Growth Percent
Method in brief: as §2

MDA-MB-435 = assay: NCI one-dose screen; type: cell-based; conditions: Homo sapiens; MDA-MB-435, 10 µM; read-out: Growth Percent
Method in brief: as §2

A549/ATCC = assay: NCI one-dose screen; type: cell-based; conditions: Homo sapiens, read-out: Growth Percent
Method in brief: as §2

UACC-257 = assay: NCI one-dose screen; type: cell-based; conditions: Homo sapiens; UACC-257, 10 µM; read-out: Growth Percent
Method in brief: as §2

A498 = assay: NCI one-dose screen; type: cell-based; conditions: Homo sapiens; A498, 10 µM; read-out: Growth Percent
Method in brief: as §2

[1] = system: 59 human cancer cell lines; assay: NCI one-dose screen, whole panel; type: cell-based; conditions: Homo sapiens, mean over the panel, read-out: Mean Growth Percent
Protocol: (§3) For screening of anticancer properties, all the developed compounds were chosen by the (NCI) for in-vitro antitumor evaluation. The assay was carried out using 59 human cancer cell lines obtained from nine tumour subpanels (breast, ovarian, melanoma, leukaemia, renal, CNS, lung, prostate, and colon cancer cell lines). Compounds were assessed at a 10 µM concentration. […] Also, hybrids 4a, 4b, 4e, 4i and 4j produced significant anti-proliferative effect in several cancer cells, particularly in leukaemia (RPMI-8226) and colon (HCT116) cells with growth percent of 47.87, −14.59, −24.56, −24.42, −15.84, −9.74, −53.36, −10.26, −31.29, and −39.51%, respectively.
(§4) The method description for NCI anticancer screening is provided in detail in the standard NCI-60 testing protocol.

HCT-116 = assay: NCI one-dose screen; type: cell-based, human; conditions: Homo sapiens; HCT-116, 10 µM; read-out: Growth Percent
Protocol: as §3, §4

RPMI-8226 = assay: NCI one-dose screen; type: cell-based, human; conditions: Homo sapiens; RPMI-8226, 10 µM; read-out: Growth Percent
Protocol: as §3, §4

Row | Compound | IC50 (Caco-2) [µM] | IC50 (HCT116) [µM] | IC50 (HT-29) [µM] | activity at 10 µM (NCI-H226) [%] | activity at 10 µM (IGROV1) [%] | activity at 10 µM (OVCAR-4) [%] | activity at 10 µM (CCRF-CEM) [%] | activity at 10 µM (OVCAR-5) [%] | activity at 10 µM (HS 578T) [%] | activity at 10 µM (MCF7) [%] | activity at 10 µM (ACHN) [%] | activity at 10 µM (HCC-2998) [%] | activity at 10 µM (OVCAR-3) [%] | activity at 10 µM (LOX IMVI) [%] | activity at 10 µM (MALME-3M) [%] | activity at 10 µM (SW-620) [%] | activity at 10 µM (HL-60(TB)) [%] | activity at 10 µM (T-47D) [%] | activity at 10 µM (CAKI-1) [%] | activity at 10 µM (MDA-MB-435) [%] | other results
1 | COc1ccc(/C=C/C(=O)c2ccc(-n3cc(CN4CCN(c5cc6c(cc5F)c(=O)c(C(=O)O)cn6C5CC5)CC4)nn3)cc2)cc1 [Compound 4g, (E)-1-Cyclopropyl-6-fluoro-7-(4-((1-(4-(3-(4-methoxyphenyl)acryloyl)phenyl)-1H-1,2,3-triazol-4-yl)methyl)piperazin-1-yl)-4-oxo-1,4-dihydroquinoline-3-carboxylic acid] | 11.4 ± 3.19 | 6.11 ± 1.03 | 34 ± 3.69 | 76.3 | 59 | 94.4 | 74.6 | 100 | 65.3 | 51.2 | 89.9 | 90.7 | 90.5 | 56.9 | 84.8 | 81.7 | 99 | 93.4 | 75.5 | 82.2 | activity at 10 µM (A549/ATCC): 89%; activity at 10 µM (UACC-257): 91.7%; activity at 10 µM (A498): 60.5%; activity at 10 µM [1]: 78.8%; activity at 10 µM (HCT-116): 2.68%; activity at 10 µM (RPMI-8226): 11.5%
2 | O=C(/C=C/c1ccc(Br)cc1)c1ccc(-n2cc(CN3CCN(c4cc5c(cc4F)c(=O)c(C(=O)O)cn5C4CC4)CC3)nn2)cc1 [Compound 4d, (E)-7-(4-((1-(4-(3-(4-bromophenyl)acryloyl)phenyl)-1H-1,2,3-triazol-4-yl)methyl)piperazin-1-yl)-1-cyclopropyl-6-fluoro-4-oxo-1,4-dihydroquinoline-3-carboxylic acid] | 7.19 ± 1.69 | 8.67 ± 2.15 | 62.5 ± 7.1 | 74.8 | 79.4 | 96.7 | 34.6 | 92.7 | 71.2 | 61.4 | 93.4 | 83.3 | 84.9 | 55.7 | 87.7 | 85.9 | 98.8 | 101 | 68.7 | 81.9 | activity at 10 µM (A549/ATCC): 90.5%; activity at 10 µM (UACC-257): 90.1%; activity at 10 µM (A498): 34.9%; activity at 10 µM [1]: 77.4%; activity at 10 µM (HCT-116): 17.3%; activity at 10 µM (RPMI-8226): 6.02%
3 | Cc1ccc(/C=C/C(=O)c2ccc(-n3cc(CN4CCN(c5cc6c(cc5F)c(=O)c(C(=O)O)cn6C5CC5)CC4)nn3)cc2)cc1 [Compound 4f, (E)-1-cyclopropyl-6-fluoro-4-oxo-7-(4-((1-(4-(3-(p-tolyl)acryloyl)phenyl)-1H-1,2,3-triazol-4-yl)methyl)piperazin-1-yl)-1,4-dihydroquinoline-3-carboxylic acid] | 10.1 ± 2.82 | 7.22 ± 1.45 | 14.7 ± 1.81 | 84.5 | 74.2 | 91.4 | 56.3 | 99.5 | 83.6 | 64.8 | 93.7 | 98.5 | 95.9 | 50.4 | 102 | 95.5 | 94.3 | 80 | 64.4 | 86.6 | activity at 10 µM (A549/ATCC): 87.3%; activity at 10 µM (UACC-257): 95.8%; activity at 10 µM (A498): 57.4%; activity at 10 µM [1]: 80.3%; activity at 10 µM (HCT-116): 7.82%; activity at 10 µM (RPMI-8226): 34.2%
4 | CN(C)c1ccc(/C=C/C(=O)c2ccc(-n3cc(CN4CCN(c5cc6c(cc5F)c(=O)c(C(=O)O)cn6C5CC5)CC4)nn3)cc2)cc1 [Compound 4h, (E)-1-cyclopropyl-7–(4-((1–(4-(3-(4-(dimethylamino)phenyl)acryloyl)phenyl)-1H-1,2,3-triazol-4-yl)methyl)piperazin-1-yl)-6-fluoro-4-oxo-1,4-dihydroquinoline-3-carboxylic acid] | 6.39 ± 1.41 | 5.09 ± 2.74 | 21.7 ± 2.74 | 84.6 | 69.9 | 94.8 | 84.3 | 109 | 80.5 | 59.2 | 89.8 | 92.4 | 96 | 56.9 | 96 | 98.5 | 98.8 | 86.7 | 69.8 | 77.4 | activity at 10 µM (A549/ATCC): 93.5%; activity at 10 µM (UACC-257): 101%; activity at 10 µM (A498): 64.5%; activity at 10 µM [1]: 82%; activity at 10 µM (HCT-116): 8.04%; activity at 10 µM (RPMI-8226): 44.3%
5 | O=C(/C=C/c1ccc(Cl)cc1)c1ccc(-n2cc(CN3CCN(c4cc5c(cc4F)c(=O)c(C(=O)O)cn5C4CC4)CC3)nn2)cc1 [Compound 4c, (E)-7-(4-((1-(4-(3-(4-chlorophenyl)acryloyl)phenyl)-1H-1,2,3-triazol-4-yl)methyl)piperazin-1-yl)-1-cyclopropyl-6-fluoro-4-oxo-1,4-dihydroquinoline-3-carboxylic acid] | 11.7 ± 2.95 | 6.45 ± 1.84 | 15.3 ± 1.54 | 73 | 84 | 89.7 | 64.9 | 92.2 | 67.4 | 58.2 | 93.5 | 88.3 | 91.5 | 36.2 | 91.2 | 83.7 | 99.1 | 92.9 | 61.4 | 79.5 | activity at 10 µM (A549/ATCC): 88.9%; activity at 10 µM (UACC-257): 91%; activity at 10 µM (A498): 52.2%; activity at 10 µM [1]: 73.9%; activity at 10 µM (HCT-116): 6.95%; activity at 10 µM (RPMI-8226): -0.51%

From PMC9116245, “New 1,2,3-triazole linked ciprofloxacin-chalcones induce DNA damage by inhibiting human topoisomerase I& II and tubulin polymerization” (Journal of Enzyme Inhibition and Medicinal Chemistry, 2022)
